{"source": "paper PMC3898838", "about": "“Design, Synthesis, and Biological Evaluation of an Allosteric Inhibitor of HSET that Targets Cancer Cells with Supernumerary Centrosomes” (Chemistry & Biology, 2013)", "format_in_all_cases": "cell-based, human", "key": {"HeLa cells": {"test_system": "HeLa cells", "assay": "Time-lapse video microscopy, mitotic duration, arrest and exit", "details": "200 μM CW069, 100 μM monastrol", "description": "HSET is known to antagonize the activity of the related kinesin, KSP, during spindle formation ([Mountain et al., 1999]). Therefore, we used time-lapse video microscopy to investigate whether CW069-treated cells transit mitosis with normal kinetics, and whether the characteristic mitotic arrest induced by inhibition of KSP ([Mayer et al., 1999]) could be suppressed by cotreatment with CW069. To this end, HeLa cells were treated with either DMSO control (0.2%), 200 μM CW069, 100 μM monastrol, or CW069+monastrol for 60 min before being imaged every 5 min for a further 360 min. Mitotic duration (MD) was defined as the period of time between when the cells began to round up and the onset of anaphase. No statistical difference was recorded between control cells and cells treated with 200 μM CW069 (MD 55 ± 7 and 53 ± 6 min, respectively, Figures 6A, 6B, and S7). […] This effect was reversed to a large extent by cotreatment of CW069 with monastrol. […] This is consistent with observations previously reported for KSP-depleted cells ([Mountain et al., 1999]). […] Cells were synchronized in G2-M by incubation at 37°C and 5% CO2 for 24 hr with 9 μM of the CDK1 inhibitor RO-3306 (Merck). Cells were released by removal of the RO-3306 and four washings of 10 min each, at 37°C, with prewarmed culture media + 10% FBS. N1E-115 cells were transfected with siRNA (Supplemental Experimental Procedures) and imaged from 6 hr after transfection. Some RO-3306-synchronized cells were released with 200 μM CW069, 100 μM monastrol, or 0.2% DMSO, and imaging started immediately or 1 hr after treatment. Imaging was carried out for 24 hr, or for 4 hr in the case of the CW069/monastrol cotreatment. Imaging was conducted every 5 min in a humidified chamber with 37°C and 5% CO2, using a Nikon Eclipse TE2000-E microscope, and analyzed with NIS-Elements software (Nikon, Tokyo, Japan). The morphology of cells in mitosis and the mitotic fate (bipolar division, multipolar division, or cell death) were analyzed."}, "MCF-7 cells": {"test_system": "MCF-7 cells", "assay": "IncuCyte live-cell imaging, proliferation", "details": "MCF-7, 100-350 μM", "description": "(§1) In order to ascertain whether CW069 could more broadly reduce proliferation in a range of cancer cells, we carried out IncuCyte live-cell imaging on N1E-115 cells and BT549 (with lower but marked centrosome amplification) and MCF-7 (with normal centrosome numbers) breast cancer cells. Cells were imaged for 21 hr prior to treatment with DMSO control (0.2%) and various concentrations of CW069, and then imaged for a further 36 hr. […] It could also be due to another direct or indirect effect, and the role of HSET in the survival of cancer cells with normal centrosome numbers remains to be fully understood.\n(§2) NHDF cells were obtained from PromoCell, and the N1E-115 and HeLa cells were obtained from ATCC/LGC Standards. The BT549, MCF-7 and MDA-MB-231 cells were kind gifts from the Caldas laboratory (CRUK Cambridge Institute) and were originally obtained from ATCC/LGC. All human cells were verified by STR genotyping and all tested negative for mycoplasma. […] Fluorescence was quantified using an Infinite 200 PRO plate-reader (Tecan) at a wavelength of 545 nm. […]\n(§3) For live-cell imaging, plated cells were imaged prior to treatment for 24 hr and then after treatment for 72 hr. […] Data were analyzed as the percentage of original cell confluency in order to directly compare each compound treatment with the DMSO control."}, "BT549 cells": {"test_system": "BT549 cells", "assay": "IncuCyte live-cell imaging, proliferation", "details": "BT549, 100-350 μM", "description": "as §1, §2, §3"}, "[1]": {"details": ">200 cells that entered mitosis >60 min after treatment"}}}
{"smiles": "O=C(O)c1cc(I)ccc1NC(=O)[C@H](Cc1ccccc1)NCc1ccccc1", "note": "[CW069]", "values": [{"measurement": "Mitotic Arrest (%)", "setting": "HeLa cells; [1]", "value": 4, "unit": "%"}, {"measurement": "Mitotic Exit (%)", "setting": "HeLa cells; [1]", "value": 96, "unit": "%"}, {"measurement": "Mitotic duration (MD)", "setting": "HeLa cells; rounding up to anaphase onset, cells transiting mitosis", "value": "53 ± 6", "unit": "min"}, {"measurement": "cell proliferation", "setting": "MCF-7 cells", "value": "does reduce their proliferation"}, {"measurement": "cell proliferation", "setting": "BT549 cells", "value": "antiproliferative effect"}]}
